# In patent US8962322B2, “Enhancers of induced pluripotent stem cell reprogramming” (City of Hope, priority 2012, dated 2015):
# System: endogenous Oct4
# Experiment: RT-PCR of endogenous Oct4 mRNA in treated MEFs
# Format: cell-based, mouse
# Conditions: versus vehicle
# Procedure: MEFs were treated with vehicle control or OAC 1 to test whether OAC 1 activates endogenous Oct4 and Nanog gene transcription. […] Oct4, Sox2, and Nanog are central to the transcriptional regulatory hierarchy for ESC pluripotency, forming the core transcriptional regulatory circuitry in ESCs (37). […] OAC1 activated Sox2 mRNA expression, along with Oct4 and Nanog (FIG. 61).
# RT-PCR analysis: Total RNA was purified with Trizol reagent (Invitrogen). Reverse transcription was performed with 1 μg of RNA using Omniscript® Reverse Transcription Kit (Qiagen). Quantitative PCR was performed using iTaq SYBR Green Supermix with Rox (Bio-rad) in Applied Biosystem Step one plus real-time PCR system. […]
smiles,measurement,value
"O=C(Nc1cc2cc[nH]c2cn1)c1ccccc1 [OAC1, N-(1H-6-azaindol-5-yl)benzamide]",endogenous Oct4 mRNA expression,activated
